These results are taken from patent US20260022143A1, “Cyclic Peptide Inhibitors of IL-23” (JANSSEN PHARMACEUTICA NV, priority 2022, published 2026).

Starred links: 1 amine or outer side, 2 acyl side, 3 side chain; linkers in the order of their positions; H or OH if unused. Positions of bridges follow the written chain, without caps; N, C: chain ends. Non-standard residues stand in square brackets, D forms with d. Residues, ends and D or L forms follow the SMILES beside them. Groups on a side chain read outwards from the residue. *: point of attachment. X33 = C[N+](C)(C)CCCCc1cn(-c2ccc(C[C@H](N[*:1])C(=O)[*:2])cc2)nn1; Me3N+(CH2)2O(CH2)2O(CH2)2CO = C[N+](C)(C)CCOCCOCCC(=O)*; CH2CH2OCH2CH2OCH2CH2NMe3+ = C[N+](C)(C)CCOCCOCC*; Trp(7-Me) = Cc1cccc2c(C[C@H](N)C(=O)O)c[nH]c12; Hexanoyl(6-NMe3+) = C[N+](C)(C)CCCCCC(=O)*; Dab(NMeAc) = CC(=O)N(C)CC[C@H](N)C(=O)O; γGlu = O=C(O)[C@H](CCC(=O)[*:2])N[*:1]; 2Nal = N[C@@H](Cc1ccc2ccccc2c1)C(=O)O; AEF = NCCOc1ccc(C[C@H](N)C(=O)O)cc1; dNMeY = CN[C@H](Cc1ccc(O)cc1)C(=O)O; X10 = C[N+](C)(C)C[C@H](CC(=O)O)N*; 3Pal = N[C@@H](Cc1cccnc1)C(=O)O; Myristoyl = CCCCCCCCCCCCCC(=O)*; X14 = C[N+](C)(C)CCc1cn(CC*)nn1; Lys(Me) = CNCCCC[C@H](N)C(=O)O; NMeK = CN[C@@H](CCCCN)C(=O)O; Pen = CC(C)(S)[C@H](N)C(=O)O; αMeK = C[C@](N)(CCCCN)C(=O)O; Thp = NC1(C(=O)O)CCOCC1; X3 = C[N+](C)(C)CCCCC*; AEEA = NCCOCCOCC(=O)O; Me2NCH2CH2 = CN(C)CC*; Sar = CNCC(=O)O

A short description of the data set: Exposed Polar Surface Area (EPSA). It counts as physicochemical. To be noted: SFC on Chirex 3014 column; sample 1 mM DMSO stock; read-out: EPSA. The method in brief: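 Compounds, as 1 mM DMSO stock, were injected in duplicate onto an SFC Chirex 3014 column at 35 °C and eluted with a CO2/methanol (20 mM ammonium formate) gradient. EPSA values in Å^2 were derived from retention times using a linear fit to eight calibration standards, reinjected every 20 compounds.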
With `CCCCCCCCCCCCCC(=O)N[C@@H](CCC(=O)NCCOCCOCC(=O)NCCOCCOCC(=O)NCCCC[C@@H]1NC(=O)[C@@H](NC(=O)CCOCCOCC[N+](C)(C)C)C(C)(C)SSC(C)(C)[C@@H](C(=O)N[C@@H](Cc2ccc(OCCCCC[N+](C)(C)C)cc2)C(=O)N[C@@H](Cc2ccc3ccccc3c2)C(=O)NC2(C(=O)N[C@@H](CCCCN(C)C(C)=O)C(=O)N[C@@H](CC(N)=O)C(=O)N[C@@H](Cc3cccnc3)C(=O)N(C)[C@@H](CCCCNC(=O)COCCOCCNC(=O)COCCOCCNC(=O)CC[C@H](NC(=O)CCCCCCCCCCCCC)C(=O)O)C(N)=O)CCOCC2)NC(=O)[C@H](CCCCNC(C)=O)NC(=O)[C@H](Cc2c[nH]c3c(C)cccc23)NC(=O)[C@H]([C@@H](C)O)NC1=O)C(=O)O` [compound 357, cPEG3aCO-Pen(3)-K(PEG2PEG2gEC14)-T-7MeW-K(Ac)-Pen(3)-TMAPF-2Nal-THP-K(NMeac)-N-3Pya-NMeK(PEG2PEG2gEC14)-CONH2] ({Me3N+(CH2)2O(CH2)2O(CH2)2CO}-[Pen]K([AEEA-AEEA-γGlu-Myristoyl])T[Trp(7-Me)]K(Ac)[Pen]Y(X3)[2Nal][Thp][Lys(Me)](Ac)N[3Pal][NMeK]([AEEA-AEEA-γGlu-Myristoyl])-NH2; disulfide 1-6), the EPSA came to 181 A^2.
As to `CC(=O)N[C@@H]1C(=O)N[C@@H](CC(=O)N(C)C)C(=O)N[C@@H]([C@@H](C)O)C(=O)N[C@@H](Cc2c[nH]c3c(C)cccc23)C(=O)N[C@@H](CCC(=O)N(C)C)C(=O)N[C@H](C(=O)N[C@@H](Cc2ccc(OCCN(C)C)cc2)C(=O)N[C@@H](Cc2ccc3ccccc3c2)C(=O)NC2(C(=O)N[C@@H](CCC(=O)O)C(=O)N[C@@H](CC(N)=O)C(=O)N[C@@H](Cc3cccnc3)C(=O)N(C)CC(=O)N(C)C)CCOCC2)C(C)(C)SSC1(C)C` [compound 120, MeCO-Pen(3)-N(N(Me)2)-T-7MeW-Q(N(Me)2)-Pen(3)-AEF(N(Me)2)-2Nal-THP-E-N-3Pya-Sar-CON(Me)2] (Ac-[Pen]D(NMe2)T[Trp(7-Me)]E(NMe2)[Pen]Y(Me2NCH2CH2)[2Nal][Thp]EN[3Pal][Sar]-NMe2; disulfide 1-6), the EPSA turned out to be 153 A^2.
For `CC(=O)N(C)CCCC[C@@H]1NC(=O)[C@H](Cc2c[nH]c3c(C)cccc23)NC(=O)[C@H]([C@@H](C)O)NC(=O)[C@H](CC(=O)N(C)C)NC(=O)[C@@H](NC(=O)CCOCCOCC[N+](C)(C)C)C(C)(C)SSC(C)(C)[C@@H](C(=O)N[C@@H](Cc2ccc(OCCOCCOCC[N+](C)(C)C)cc2)C(=O)N[C@@H](Cc2ccc3ccccc3c2)C(=O)NC2(C(=O)N[C@@H](CCN(C)C(C)=O)C(=O)N[C@@H](CC(N)=O)C(=O)N[C@@H](Cc3cccnc3)C(=O)N(C)CC(=O)N(C)C)CCOCC2)NC1=O` [compound 209, cPEG3aCO-Pen(3)-N(N(Me)2)-T-7MeW-K(NMeAc)-Pen(3)-APEG3F-2Nal-THP-Dab(NMeAc)-N-3Pya-Sar-CON(Me)2] ({Me3N+(CH2)2O(CH2)2O(CH2)2CO}-[Pen]D(NMe2)T[Trp(7-Me)][Lys(Me)](Ac)[Pen]Y(CH2CH2OCH2CH2OCH2CH2NMe3+)[2Nal][Thp][Dab(NMeAc)]N[3Pal][Sar]-NMe2; disulfide 1-6), the EPSA was 139 A^2.
For the compound `CC(=O)NCCCC[C@@H]1NC(=O)[C@H](Cc2c[nH]c3c(C)cccc23)NC(=O)[C@H]([C@@H](C)O)NC(=O)[C@H](CC(N)=O)NC(=O)[C@@H](NC(C)=O)C(C)(C)SSC(C)(C)[C@@H](C(=O)N[C@@H](Cc2ccc(OCCn3cc(CC[N+](C)(C)C)nn3)cc2)C(=O)N[C@@H](Cc2ccc3ccccc3c2)C(=O)NC2(C(=O)N[C@@H](CCCCNC(C)=O)C(=O)N[C@@H](CC(N)=O)C(=O)N[C@@H](Cc3cccnc3)C(=O)N(C)CC(N)=O)CCOCC2)NC1=O` [compound 235] (Ac-[Pen]NT[Trp(7-Me)]K(Ac)[Pen]Y(X14)[2Nal][Thp]K(Ac)N[3Pal][Sar]-NH2; disulfide 1-6 (inferred)), the EPSA was found to be 149 A^2.
For `CC(=O)NCCCC[C@@H]1NC(=O)[C@H](Cc2c[nH]c3c(C)cccc23)NC(=O)[C@H]([C@@H](C)O)NC(=O)[C@H](CC(N)=O)NC(=O)[C@@H](NC(=O)CCOCCOCC[N+](C)(C)C)C(C)(C)SSC(C)(C)[C@@H](C(=O)N[C@@H](Cc2ccc(OCCNC(=N)N)cc2)C(=O)N[C@@H](Cc2ccc3ccccc3c2)C(=O)NC2(C(=O)N[C@@H](CCC(=O)O)C(=O)N[C@@H](CC(N)=O)C(=O)N[C@@H](Cc3cncc(C)c3)C(=O)N(C)CC(N)=O)CCOCC2)NC1=O` [compound 514, cPEG3aCO-Pen(3)-N-T-7MeW-K(Ac)-Pen(3)-AEF(G)-2Nal-THP-E-N-5MePyridinAla-Sar-CONH2], the EPSA worked out at 248 A^2.
Take `CC(=O)NCCCC[C@@H]1NC(=O)[C@H](Cc2c[nH]c3c(C)cccc23)NC(=O)[C@H]([C@@H](C)O)NC(=O)[C@H](CC(N)=O)NC(=O)[C@@H](NC(C)=O)C(C)(C)SSC(C)(C)[C@@H](C(=O)N[C@@H](Cc2ccc(OCCN)cc2)C(=O)N[C@@H](Cc2ccc3ccccc3c2)C(=O)NC2(C(=O)N[C@@H](CCC(=O)N[C@@H](CC(=O)O)C[N+](C)(C)C)C(=O)N[C@@H](CC(N)=O)C(=O)N[C@@H](Cc3cccnc3)C(=O)N(C)CC(N)=O)CCOCC2)NC1=O` [compound 128] (Ac-[Pen]NT[Trp(7-Me)]K(Ac)[Pen][AEF][2Nal][Thp]E(X10)N[3Pal][Sar]-NH2; disulfide 1-6): the EPSA worked out at 175 A^2.
Take `CC(=O)N(C)CCCC[C@@H]1NC(=O)[C@H](Cc2c[nH]c3c(C)cccc23)NC(=O)[C@H]([C@@H](C)O)NC(=O)[C@H](CC(=O)N(C)C)NC(=O)[C@@H](NC(=O)CCOCCOCC[N+](C)(C)C)C(C)(C)SSC(C)(C)[C@@H](C(=O)N[C@@H](Cc2ccc(OCCN)cc2)C(=O)N[C@@H](Cc2ccc3ccccc3c2)C(=O)NC2(C(=O)N[C@@H](CCCCN(C)C(C)=O)C(=O)N[C@@H](CC(N)=O)C(=O)N[C@@H](Cc3cccnc3)C(=O)N(C)CC(N)=O)CCOCC2)NC1=O` [compound 169, cPEG3aCO-Pen(3)-N(N(Me)2)-T-7MeW-K(NMeAc)-Pen(3)-AEF-2Nal-THP-K(NMeAc)-N-3Pya-Sar-CONH2] ({Me3N+(CH2)2O(CH2)2O(CH2)2CO}-[Pen]D(NMe2)T[Trp(7-Me)][Lys(Me)](Ac)[Pen][AEF][2Nal][Thp][Lys(Me)](Ac)N[3Pal][Sar]-NH2; disulfide 1-6): the EPSA came out at 154 A^2.
Consider `CC(=O)N(C)CCCC[C@H](NC(=O)C1(NC(=O)[C@H](Cc2ccc3ccccc3c2)NC(=O)[C@H](Cc2ccc(OCCN)cc2)NC(=O)[C@H]2NC(=O)[C@H](CCC(=O)N(C)C)NC(=O)[C@H](Cc3c[nH]c4c(C)cccc34)NC(=O)[C@H]([C@@H](C)O)NC(=O)[C@H](CC(N)=O)NC(=O)[C@@H](NC(=O)CCOCCOCC[N+](C)(C)C)C(C)(C)SSC2(C)C)CCOCC1)C(=O)N[C@@H](CC(N)=O)C(=O)N[C@@H](Cc1cccnc1)C(=O)N(C)CC(N)=O` [compound 168, cPEG3aCO-Pen(3)-N-T-7MeW-Q(N(Me)2)-Pen(3)-AEF-2Nal-THP-K(NMeAc)-N-3Pya-Sar-CONH2] ({Me3N+(CH2)2O(CH2)2O(CH2)2CO}-[Pen]NT[Trp(7-Me)]E(NMe2)[Pen][AEF][2Nal][Thp][Lys(Me)](Ac)N[3Pal][Sar]-NH2; disulfide 1-6), for which the EPSA was 154 A^2.
`CC(=O)NCCCC[C@@H]1NC(=O)[C@H](Cc2c[nH]c3c(C)cccc23)NC(=O)[C@H]([C@@H](C)O)NC(=O)[C@H](CC(N)=O)NC(=O)[C@@H](NC(=O)[C@@H](CCCCNC(=O)CCCCC[N+](C)(C)C)NC(C)=O)C(C)(C)SSC(C)(C)[C@@H](C(=O)N[C@@H](Cc2ccc(OCCN)cc2)C(=O)N[C@@H](Cc2ccc3ccccc3c2)C(=O)NC2(C(=O)N[C@@H](CCC(=O)O)C(=O)N[C@@H](CC(N)=O)C(=O)N[C@@H](Cc3cccnc3)C(=O)N(C)CC(N)=O)CCOCC2)NC1=O` [compound 83] (Ac-[dK](Hexanoyl(6-NMe3+))[Pen]NT[Trp(7-Me)]K(Ac)[Pen][AEF][2Nal][Thp]EN[3Pal][Sar]-NH2; disulfide 2-7 (inferred)): the EPSA was determined as 167 A^2.
The result for `CC(=O)NCCCC[C@@H]1NC(=O)[C@H](Cc2c[nH]c3c(C)cccc23)NC(=O)[C@H]([C@@H](C)O)NC(=O)[C@H](CC(N)=O)NC(=O)[C@@H](NC(C)=O)C(C)(C)SSC(C)(C)[C@@H](C(=O)N[C@@H](Cc2ccc(OCCOCCOCC[N+](C)(C)C)cc2)C(=O)N[C@@H](Cc2ccc3ccccc3c2)C(=O)NC2(C(=O)N[C@@H](CCCCNC(C)=O)C(=O)N[C@@H](CC(N)=O)C(=O)N[C@@H](Cc3cccnc3)C(=O)N(C)CC(N)=O)CCOCC2)NC1=O` [compound 194] (Ac-[Pen]NT[Trp(7-Me)]K(Ac)[Pen]Y(CH2CH2OCH2CH2OCH2CH2NMe3+)[2Nal][Thp]K(Ac)N[3Pal][Sar]-NH2; disulfide 1-6) reads 146 A^2.
Consider `CC(=O)NCCCC[C@@H]1NC(=O)[C@H](Cc2c[nH]c3c(C)cccc23)NC(=O)[C@H]([C@@H](C)O)NC(=O)[C@H](CC(N)=O)NC(=O)[C@@H](NC(=O)[C@@H](CCCNC(=N)N)NC(C)=O)C(C)(C)SSC(C)(C)[C@@H](C(=O)N[C@@H](Cc2ccc(OCCN)cc2)C(=O)N[C@@H](Cc2ccc3ccccc3c2)C(=O)N[C@@](C)(CCCCN)C(=O)N[C@@H](CCC(=O)O)C(=O)N[C@@H](CC(N)=O)C(=O)N[C@@H](Cc2c[nH]cn2)C(=O)N(C)[C@H](Cc2ccc(O)cc2)C(N)=O)NC1=O` [compound 9, MeCO-r-Pen(3)-N-T-7MeW-K(Ac)-Pen(3)-AEF-2Nal-aMeK-E-N-H-NMeDTyr-CONH2] (Ac-[dR][Pen]NT[Trp(7-Me)]K(Ac)[Pen][AEF][2Nal][αMeK]ENH[dNMeY]-NH2; disulfide 2-7), for which the EPSA was found to be 187 A^2.
For `CC(=O)NCCCC[C@@H]1NC(=O)[C@H](Cc2c[nH]c3c(C)cccc23)NC(=O)[C@H]([C@@H](C)O)NC(=O)[C@H](CC(N)=O)NC(=O)[C@@H](NC(C)=O)C(C)(C)SSC(C)(C)[C@@H](C(=O)N[C@@H](Cc2ccc(-n3cc(CCCC[N+](C)(C)C)nn3)cc2)C(=O)N[C@@H](Cc2ccc3ccccc3c2)C(=O)NC2(C(=O)N[C@@H](CCCCNC(C)=O)C(=O)N[C@@H](CC(N)=O)C(=O)N[C@@H](Cc3cccnc3)C(=O)N(C)CC(N)=O)CCOCC2)NC1=O` [compound 425] (Ac-[Pen]NT[Trp(7-Me)]K(Ac)[Pen][X33][2Nal][Thp]K(Ac)N[3Pal][Sar]-NH2; disulfide 1-6 (inferred)), the EPSA amounted to 161 A^2.
